# Measured values reported in US20230365576A1, “BRM Targeting Compounds And Associated Methods Of Use” (Prelude Therapeutics Incorporated, priority 2022, published 2023).
# Columns and labels:
# SMARCA4 = target: T1, SMARCA4 (Homo sapiens, UniProt P51532); assay: SMARCA4 HiBiT degradation assay in HeLa cells; format: cell-based; settings: 18 hours; for Dmax: HeLa
# T1 construct: SMARCA4-HiBiT knock-in Hela monoclonal cell (CS3023226) were purchased from Promega; host or cells: HeLa (CRISPR HiBiT knock-in monoclonal line, heterozygous)
# Method in brief: (§1)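 Degradation measured as HiBiT luminescence (Nano-Glo lytic reagent) after 18 h compound exposure at 37° C. Cells were HeLa clones carrying heterozygous HiBiT tags on SMARCA2 or SMARCA4, 2500 per well; compounds at 3-fold serial dilution from 10 μM.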
# SMARCA2 = target: T2, SMARCA2 (Homo sapiens, UniProt P51531); assay: SMARCA2 HiBiT degradation assay in HeLa cells; format: cell-based; settings: 18 hours; for DC50: read-out: SMARCA2 IC50; for Dmax: HeLa
# T2 construct: SMARCA2-HiBiT knock-in Hela monoclonal cell (CS302366); host or cells: HeLa (CRISPR HiBiT knock-in monoclonal line, heterozygous)
# Method in brief: as §1
# T2 sequence (P51531 whole entry): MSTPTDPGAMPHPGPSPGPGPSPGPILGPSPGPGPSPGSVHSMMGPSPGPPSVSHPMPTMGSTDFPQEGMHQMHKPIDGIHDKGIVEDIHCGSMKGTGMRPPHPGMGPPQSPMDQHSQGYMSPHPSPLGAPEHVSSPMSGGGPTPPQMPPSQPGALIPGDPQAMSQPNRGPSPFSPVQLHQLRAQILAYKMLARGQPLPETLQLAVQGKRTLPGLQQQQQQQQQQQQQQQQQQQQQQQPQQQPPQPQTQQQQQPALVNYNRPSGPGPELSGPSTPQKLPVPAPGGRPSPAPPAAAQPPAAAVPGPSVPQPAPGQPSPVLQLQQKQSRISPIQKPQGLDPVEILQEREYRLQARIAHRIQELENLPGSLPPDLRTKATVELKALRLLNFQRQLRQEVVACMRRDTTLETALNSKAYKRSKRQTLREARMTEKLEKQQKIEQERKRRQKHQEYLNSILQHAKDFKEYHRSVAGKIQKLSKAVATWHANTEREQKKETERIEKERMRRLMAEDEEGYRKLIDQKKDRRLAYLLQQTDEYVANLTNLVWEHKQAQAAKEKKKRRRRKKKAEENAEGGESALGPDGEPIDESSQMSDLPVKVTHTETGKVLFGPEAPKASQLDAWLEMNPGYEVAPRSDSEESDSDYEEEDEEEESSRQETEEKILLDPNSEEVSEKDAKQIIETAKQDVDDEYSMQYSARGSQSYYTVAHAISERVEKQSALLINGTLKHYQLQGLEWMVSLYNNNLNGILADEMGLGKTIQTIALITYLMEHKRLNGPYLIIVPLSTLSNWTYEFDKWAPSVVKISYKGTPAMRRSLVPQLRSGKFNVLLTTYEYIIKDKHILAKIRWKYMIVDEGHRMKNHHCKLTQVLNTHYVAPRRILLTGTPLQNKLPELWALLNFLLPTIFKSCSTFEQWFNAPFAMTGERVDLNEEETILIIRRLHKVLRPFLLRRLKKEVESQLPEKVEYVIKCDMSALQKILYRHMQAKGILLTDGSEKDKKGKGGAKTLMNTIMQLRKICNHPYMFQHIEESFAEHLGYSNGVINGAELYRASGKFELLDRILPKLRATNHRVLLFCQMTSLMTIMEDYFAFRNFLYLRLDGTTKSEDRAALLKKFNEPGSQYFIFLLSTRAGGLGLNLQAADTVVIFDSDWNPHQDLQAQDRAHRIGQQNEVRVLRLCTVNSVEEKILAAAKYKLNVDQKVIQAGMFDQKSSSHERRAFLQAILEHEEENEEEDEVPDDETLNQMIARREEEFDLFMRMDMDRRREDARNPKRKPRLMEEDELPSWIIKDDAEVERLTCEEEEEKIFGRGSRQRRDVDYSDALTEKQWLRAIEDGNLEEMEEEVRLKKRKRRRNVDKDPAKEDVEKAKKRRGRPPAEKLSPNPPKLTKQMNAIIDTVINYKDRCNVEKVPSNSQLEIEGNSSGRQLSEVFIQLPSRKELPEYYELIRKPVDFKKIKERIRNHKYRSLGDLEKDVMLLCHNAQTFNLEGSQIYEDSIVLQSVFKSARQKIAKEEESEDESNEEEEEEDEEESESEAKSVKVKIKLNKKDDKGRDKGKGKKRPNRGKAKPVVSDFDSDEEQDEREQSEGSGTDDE
# T1 sequence (P51532 whole entry): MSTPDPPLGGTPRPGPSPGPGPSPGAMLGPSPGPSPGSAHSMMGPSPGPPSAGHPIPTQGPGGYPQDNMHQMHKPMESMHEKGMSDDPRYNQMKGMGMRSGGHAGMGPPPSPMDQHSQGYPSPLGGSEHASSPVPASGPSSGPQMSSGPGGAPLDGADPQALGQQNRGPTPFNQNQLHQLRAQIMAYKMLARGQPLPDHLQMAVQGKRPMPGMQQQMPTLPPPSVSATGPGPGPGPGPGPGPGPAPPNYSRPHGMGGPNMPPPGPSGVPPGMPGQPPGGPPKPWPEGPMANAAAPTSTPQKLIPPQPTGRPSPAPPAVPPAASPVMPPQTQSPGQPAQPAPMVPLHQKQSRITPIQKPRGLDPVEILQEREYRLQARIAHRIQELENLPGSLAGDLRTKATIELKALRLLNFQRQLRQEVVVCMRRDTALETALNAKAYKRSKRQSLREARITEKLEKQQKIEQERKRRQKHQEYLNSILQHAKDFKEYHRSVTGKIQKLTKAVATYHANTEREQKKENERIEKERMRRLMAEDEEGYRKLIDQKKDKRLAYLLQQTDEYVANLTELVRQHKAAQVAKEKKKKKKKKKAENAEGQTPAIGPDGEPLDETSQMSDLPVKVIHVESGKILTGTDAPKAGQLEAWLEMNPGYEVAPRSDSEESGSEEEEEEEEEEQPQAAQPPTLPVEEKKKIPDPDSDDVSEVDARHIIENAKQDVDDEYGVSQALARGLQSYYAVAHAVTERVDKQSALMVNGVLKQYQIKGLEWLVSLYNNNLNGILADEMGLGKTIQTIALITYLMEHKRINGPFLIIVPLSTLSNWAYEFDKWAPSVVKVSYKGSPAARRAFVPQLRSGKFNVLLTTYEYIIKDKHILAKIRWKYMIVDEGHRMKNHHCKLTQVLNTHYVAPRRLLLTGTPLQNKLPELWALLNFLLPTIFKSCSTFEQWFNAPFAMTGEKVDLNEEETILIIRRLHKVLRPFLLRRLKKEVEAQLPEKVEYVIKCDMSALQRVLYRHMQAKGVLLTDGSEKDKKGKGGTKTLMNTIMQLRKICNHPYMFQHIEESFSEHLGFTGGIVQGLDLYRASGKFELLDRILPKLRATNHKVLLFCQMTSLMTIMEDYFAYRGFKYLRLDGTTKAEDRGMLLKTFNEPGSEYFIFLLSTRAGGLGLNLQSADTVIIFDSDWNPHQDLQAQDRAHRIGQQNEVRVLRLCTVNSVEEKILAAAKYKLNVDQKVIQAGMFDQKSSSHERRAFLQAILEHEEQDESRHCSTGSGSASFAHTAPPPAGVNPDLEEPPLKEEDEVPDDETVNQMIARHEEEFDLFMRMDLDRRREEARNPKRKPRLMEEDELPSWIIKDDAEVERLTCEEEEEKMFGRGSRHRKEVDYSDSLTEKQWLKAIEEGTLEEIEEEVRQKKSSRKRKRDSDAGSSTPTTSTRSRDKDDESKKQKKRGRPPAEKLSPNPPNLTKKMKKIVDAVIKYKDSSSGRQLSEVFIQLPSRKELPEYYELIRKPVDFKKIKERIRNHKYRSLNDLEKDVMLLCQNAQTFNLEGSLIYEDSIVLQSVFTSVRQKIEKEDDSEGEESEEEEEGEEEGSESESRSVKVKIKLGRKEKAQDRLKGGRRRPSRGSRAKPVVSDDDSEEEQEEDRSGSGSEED
SMILES,DC50 (SMARCA4) [nM],Dmax (SMARCA4) [%],DC50 (SMARCA2) [nM],Dmax (SMARCA2) [%],SMARCA4 DMax % (SMARCA4)
"C[C@@H]1CN(CC2CCN(c3ccc4c(c3)C(=O)N(C3CCC(=O)NC3=O)C4)CC2)C[C@@H](C)N1C(=O)N1CCN2c3cc(-c4cccc(Cl)c4O)nnc3NCC2(C)C1 (single isomer, unassigned) [Example 14]",< 100,50 to 75,< 100,> 75,
"C[C@H]1CN2c3cc(-c4cccc(F)c4O)nnc3NC[C@H]2CN1C(=O)N1CCN(CC2CCN(c3ccc4c(c3)C(=O)N(C3CCC(=O)NC3=O)C4)CC2)CC1(C)C (stereo partly drawn) [Example 4, 3-(6-(4-((4-((6aS,9S)-2-(3-fluoro-2-hydroxyphenyl)-9-methyl-6,6a,7,8,9,10-hexahydro-5H-pyrazino[1′,2′:4,5]pyrazino[2,3-c]pyridazine-8-carbonyl)-3,3-dimethylpiperazin-1-yl)methyl)piperidin-1-yl)-1-oxoisoindolin-2-yl)piperidine-2,6-dione]",< 100,< 50,< 100,> 75,
"C[C@H]1CN(CC2CCN(c3ccc4c(c3)C(=O)N([C@H]3CCC(=O)NC3=O)C4)CC2)C[C@H](C)N1C(=O)N1CCN2c3cc(-c4cccc(F)c4O)nnc3NC[C@]2(C(F)F)C1 [Example 66, (S)-3-(6-(4-(((3S,5S)-4-((R)-6a-(difluoromethyl)-2-(3-fluoro-2-hydroxyphenyl)-6,6a,7,8,9,10-hexahydro-5H-pyrazino[1′,2′:4,5]pyrazino[2,3-c]pyridazine-8-carbonyl)-3,5-dimethylpiperazin-1-yl)methyl)piperidin-1-yl)-1-oxoisoindolin-2-yl)piperidine-2,6-dione]",< 100,> 75,< 100,> 75,
"O=C1CC[C@H](N2Cc3ccc(N4CCN(C[C@H]5CC[C@H](CN6CCN7c8cc(-c9cccc(F)c9O)nnc8NC[C@H]7C6)CC5)CC4)cc3C2=O)C(=O)N1 [Example 114, (S)-3-(6-(4-(((1S,4S)-4-(((S)-2-(3-fluoro-2-hydroxyphenyl)-5,6,6a,7,9,10-hexahydro-8H-pyrazino[1′,2′:4,5]pyrazino[2,3-c]pyridazin-8-yl)methyl)cyclohexyl)methyl)piperazin-1-yl)-1-oxoisoindolin-2-yl)piperidine-2,6-dione]",< 100,50 to 75,< 100,> 75,
"CCC12CNc3nnc(-c4cccc(F)c4O)cc3N1CCN(C(=O)N1CCN(CC3CCN(c4ccc5c(c4)C(=O)N(C4CCC(=O)NC4=O)C5)CC3)CC1(C)C)C2 (mixture of isomers) [Example 8, 3-(6-(4-((4-(6a-ethyl-2-(3-fluoro-2-hydroxyphenyl)-6,6a,7,8,9,10-hexahydro-5H-pyrazino[1′,2′:4,5]pyrazino[2,3-c]pyridazine-8-carbonyl)-3,3-dimethylpiperazin-1-yl)methyl)piperidin-1-yl)-1-oxoisoindolin-2-yl)piperidine-2,6-dione]",< 100,50 to 75,< 100,> 75,
"CCC12CNc3nnc(-c4cccc(F)c4O)cc3N1CCN(C(=O)N1[C@H](C)CN(CC3CCN(c4ccc5c(c4)C(=O)N(C4CCC(=O)NC4=O)C5)CC3)C[C@@H]1C)C2 (single isomer, unassigned) [Example 60]",< 100,> 75,< 100,> 75,
"C[C@@H]1C[C@H](CN2CCN(c3ccc4c(c3)C(=O)N([C@H]3CCC(=O)NC3=O)C4)CC2)C[C@H](C)N1C(=O)N1CCN2c3cc(-c4cccc(F)c4O)nnc3NCC2(C(F)(F)F)C1 (single isomer, unassigned) [Example 98]",< 100,,< 100,> 75,A (A=Dmax>75%)
"C[C@@H]1CN(CC2CN(c3ccc4c(c3)C(=O)N(C3CCC(=O)NC3=O)C4)C2)C[C@H](C)N1C(=O)N1C[C@@H]2CNc3nnc(-c4cc(F)cc(F)c4O)cc3N2C[C@@H]1C (stereo partly drawn) [Example 24, 3-(6-(3-(((3S,5R)-4-((6aS,9S)-2-(3,5-difluoro-2-hydroxyphenyl)-9-methyl-6,6a,7,8,9,10-hexahydro-5H-pyrazino[1′,2′:4,5]pyrazino[2,3-c]pyridazine-8-carbonyl)-3,5-dimethylpiperazin-1-yl)methyl)azetidin-1-yl)-1-oxoisoindolin-2-yl)piperidine-2,6-dione]",> 1000,< 50,< 100,> 75,
"CCC12CNc3nnc(-c4cccc(F)c4O)cc3N1CCN(C(=O)N1C[C@H](C)N(CC3CCN(c4ccc5c(c4)C(=O)N([C@H]4CCC(=O)NC4=O)C5)CC3)C[C@H]1C)C2 (single isomer, unassigned) [Example 78]",< 100,50 to 75,< 100,> 75,
"CCC12CNc3nnc(-c4cccc(F)c4O)cc3N1CCN(C(=O)N1[C@@H](C)CN(CC3CCN(c4ccc5c(c4)C(=O)N(C4CCC(=O)NC4=O)C5)CC3)C[C@@H]1C)C2 (single isomer, unassigned) [Example 81]",100 to 1000,< 50,< 100,> 75,
"CC1(C)CN(CC2CCN(c3ccc4c(c3)C(=O)N(C3CCC(=O)NC3=O)C4=O)CC2)CCN1C(=O)N1CCN2c3cc(-c4cccc(F)c4O)nnc3NCC2(C)C1 (mixture of isomers) [Example 7, 2-(2,6-dioxopiperidin-3-yl)-5-(4-((4-(2-(3-fluoro-2-hydroxyphenyl)-6a-methyl-6,6a,7,8,9,10-hexahydro-5H-pyrazino[1′,2′:4,5]pyrazino[2,3-c]pyridazine-8-carbonyl)-3,3-dimethylpiperazin-1-yl)methyl)piperidin-1-yl)isoindoline-1,3-dione]",< 100,50 to 75,< 100,> 75,

# The remaining lines, values ahead:
DC50 (SMARCA4) [nM],Dmax (SMARCA4) [%],DC50 (SMARCA2) [nM],Dmax (SMARCA2) [%],SMARCA4 DMax % (SMARCA4),SMILES
< 100,> 75,< 100,> 75,,"C[C@@H]1CN(CC2CCN(c3ccc4c(c3)C(=O)N(C3CCC(=O)NC3=O)C4)CC2)C[C@H](C)N1C(=O)N1CCN2c3cc(-c4cc(F)cc(F)c4O)nnc3NCC2(C)C1 (single isomer, unassigned) [Example 34]"
< 100,> 75,< 100,> 75,,"CCC12CNc3nnc(-c4cc(F)cc(F)c4O)cc3N1CCN(C(=O)N1[C@H](C)CN(CC3CCN(c4ccc5c(c4)C(=O)N(C4CCC(=O)NC4=O)C5)CC3)C[C@@H]1C)C2 (single isomer, unassigned) [Example 59]"
< 100,50 to 75,< 100,> 75,,"O=C1CCC(N2Cc3cc(N4CC[C@@H](CN5CCC(CN6CCN7c8cc(-c9cc(F)cc(F)c9O)nnc8NC[C@H]7C6)CC5)C4)ccc3C2=O)C(=O)N1 (stereo partly drawn) [Example 53, 3-(5-((S)-3-((4-(((S)-2-(3,5-difluoro-2-hydroxyphenyl)-5,6,6a,7,9,10-hexahydro-8H-pyrazino[1′,2′:4,5]pyrazino[2,3-c]pyridazin-8-yl)methyl)piperidin-1-yl)methyl)pyrrolidin-1-yl)-1-oxoisoindolin-2-yl)piperidine-2,6-dione]"
< 100,50 to 75,< 100,> 75,,"CCC1CN(CC2CCN(c3ccc4c(c3)C(=O)N(C3CCC(=O)NC3=O)C4)CC2)CCN1C(=O)N1CCN2c3cc(-c4cc(F)cc(F)c4O)nnc3NC[C@H]2C1 (mixture of isomers) [Example 35, 3-(6-(4-((4-((S)-2-(3,5-difluoro-2-hydroxyphenyl)-6,6a,7,8,9,10-hexahydro-5H-pyrazino[1′,2′:4,5]pyrazino[2,3-c]pyridazine-8-carbonyl)-3-ethylpiperazin-1-yl)methyl)piperidin-1-yl)-1-oxoisoindolin-2-yl)piperidine-2,6-dione]"
< 100,< 50,< 100,> 75,,"C[C@@H]1CN(C[C@H]2CN(c3ccc4c(c3)CN(C3CCC(=O)NC3=O)C4=O)CCO2)C[C@@H](C)N1C(=O)N1CCN2c3cc(-c4cc(F)cc(F)c4O)nnc3NC[C@H]2C1 (stereo partly drawn) [Example 46, 3-(5-((S)-2-(((3R,5R)-4-((S)-2-(3,5-difluoro-2-hydroxyphenyl)-6,6a,7,8,9,10-hexahydro-5H-pyrazino[1′,2′:4,5]pyrazino[2,3-c]pyridazine-8-carbonyl)-3,5-dimethylpiperazin-1-yl)methyl)morpholino)-1-oxoisoindolin-2-yl)piperidine-2,6-dione]"
< 100,,< 100,> 75,A (A=Dmax>75%),"CC12CNc3nnc(-c4cc(F)cc(F)c4O)cc3N1CCN(C(=O)C1(F)CCN(CC3CCN(c4ccc5c(c4)C(=O)N([C@H]4CCC(=O)NC4=O)C5)CC3)CC1)C2 (single isomer, unassigned) [Example 112]"
< 100,50 to 75,< 100,> 75,,"C[C@@H]1CN(CC2CCN(c3ccc4c(c3)C(=O)N(C3CCC(=O)NC3=O)C4)CC2)C[C@H](C)N1C(=O)N1CCN2c3cc(-c4cc(F)cc(F)c4O)nnc3NC[C@H]2C1 (stereo partly drawn) [Example 15, 3-(6-(4-(((3R,5S)-4-((S)-2-(3,5-difluoro-2-hydroxyphenyl)-6,6a,7,8,9,10-hexahydro-5H-pyrazino[1′,2′:4,5]pyrazino[2,3-c]pyridazine-8-carbonyl)-3,5-dimethylpiperazin-1-yl)methyl)piperidin-1-yl)-1-oxoisoindolin-2-yl)piperidine-2,6-dione]"
